# Like-named read-outs stand apart in the source and are kept apart here.
# Key:
# JAK1 = JAK1 (Homo sapiens (Human), UniProt P23458); assay: Purified kinase assay (Z'-LYTE), JAK1; format: biochemical
# Method in brief: (§1)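 Catalytic-domain recombinant kinase with Tyr6 peptide (a separate Tyr6 kit for TYK2) and ATP, 1% DMSO final, reacted 1 h at room temperature. Z′-LYTE FRET read after 1 h protease development (ex 400, em 445/520 nm). Inhibition computed from percent substrate phosphorylation versus no inhibitor; IC50 from 4-parameter logistic fit.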
# JAK2 = JAK2 (Homo sapiens (Human), UniProt O60674); assay: Purified kinase assay (Z'-LYTE), JAK2; format: biochemical
# Sequence of JAK2 (O60674 849-1124): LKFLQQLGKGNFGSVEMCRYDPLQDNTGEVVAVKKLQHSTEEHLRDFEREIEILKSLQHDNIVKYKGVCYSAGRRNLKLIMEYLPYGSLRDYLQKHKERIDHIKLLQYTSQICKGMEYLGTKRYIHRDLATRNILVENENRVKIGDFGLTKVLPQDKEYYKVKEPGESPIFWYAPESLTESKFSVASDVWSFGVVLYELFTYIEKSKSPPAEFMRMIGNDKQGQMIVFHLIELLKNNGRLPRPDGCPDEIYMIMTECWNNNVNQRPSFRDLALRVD
# Method in brief: as §1
# TYK2 = TYK2 (Homo sapiens (Human), UniProt P29597); assay: Purified kinase assay (Z'-LYTE), TYK2; format: biochemical
# Sequence of TYK2 (P29597 897-1176): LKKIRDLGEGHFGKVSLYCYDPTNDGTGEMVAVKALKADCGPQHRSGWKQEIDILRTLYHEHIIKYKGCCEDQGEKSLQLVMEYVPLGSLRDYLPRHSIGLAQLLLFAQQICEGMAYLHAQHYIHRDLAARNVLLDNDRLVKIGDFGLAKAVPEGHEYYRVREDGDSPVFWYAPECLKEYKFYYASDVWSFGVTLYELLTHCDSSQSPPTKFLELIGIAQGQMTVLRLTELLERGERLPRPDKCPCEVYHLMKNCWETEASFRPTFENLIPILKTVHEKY
# Experimental: JAK and TYK2 tyrosine phosphorylation activity is measured using the Z′-LYTE™ Technology developed by Invitrogen Corporation (Carlsbad, Calif.). For JAK1, JAK2 and JAK3 the Z′-LYTE™ Kinase Assay Kit-Tyr6 Peptide (part number PV4122) was used. For TYK2 the Z′-LYTE™ Kinase Assay Kit-Tyr6 Peptide (part number PV3192) was used. The Z′-LYTE™ biochemical assay employs a fluorescence resonance energy transfer (FRET) coupled-enzyme format and is based on the differential sensitivity of phosphorylated and non-phosphorylated peptides to proteolytic cleavage. The assay uses a synthetic peptide substrate that is labeled with a donor fluorophore (coumarin) and an acceptor fluorophore (fluorescein) that make up a FRET pair. In the primary reaction (the Kinase Reaction), the kinase transfers the γ-phosphate of ATP to a single tyrosine residue on the substrate, while the presence of a kinase inhibitor in the primary reaction suppresses phosphorylation. In the secondary reaction (the Development Reaction), a site-specific protease (the Development Reagent) is added. The development buffer quenches the Kinase Reaction, while the protease recognizes and cleaves non-phosphorylated Z′-LYTE™ peptide substrate. Cleavage disrupts FRET between the donor and acceptor fluorophores on the non-phosphorylated substrate, while uncleaved, phosphorylated substrate maintains FRET.
# To test the ability of candidate molecules to inhibit JAK tyrosine phosphorylation activity, molecules are reconstituted in 100% DMSO and serially diluted 1:10 in polypropylene v-bottom microtiter plates. The candidate molecules are then diluted 1:25 into kinase buffer and 2.5 μl transferred into duplicate wells of a 384 well low volume black microtiter assay plate (Corning, USA). The final DMSO concentration in the assay is 1%. The kinase reaction contains 2.5 μl of a candidate molecule, 5 μl of catalytic domain recombinant Kinase enzyme+Tyr peptide substrate (Invitrogen, CA) and ATP (Invitrogen, CA). The kinase reaction is allowed to proceed for 1 hour at room temperature. The protease reaction is initiated by the addition of Development Reagent (Invitrogen, CA). After 1 hour incubation at room temperature the fluorescence is measured using a FlexStation plate reader (Molecular Devices, Sunnyvale, Calif.). The reader settings used are as follows: Fluorescence mode, endpoint, top read, excitation 400 nm, emission 445 nm and 520 nm, Auto Cutoff 435 nm and 515 nm, PMT sensitivity high, 6 reads per well Inhibition of JAK activity is calculated as the percent phosphorylation of substrate in the presence of inhibitor compared to the percent phosphorylation of substrate in the absence of inhibitor. IC50's were derived using Xlfit 4.3 (IDBS, UK), 4 parameter logistic model 205: Y=(A+((B−A)/(1+((C/x)^D)))).
# JAK3 = JAK3 (Homo sapiens (Human), UniProt P52333); assay: Purified kinase assay (Z'-LYTE), JAK3; format: biochemical
# Sequence of JAK3 (P52333 822-1111): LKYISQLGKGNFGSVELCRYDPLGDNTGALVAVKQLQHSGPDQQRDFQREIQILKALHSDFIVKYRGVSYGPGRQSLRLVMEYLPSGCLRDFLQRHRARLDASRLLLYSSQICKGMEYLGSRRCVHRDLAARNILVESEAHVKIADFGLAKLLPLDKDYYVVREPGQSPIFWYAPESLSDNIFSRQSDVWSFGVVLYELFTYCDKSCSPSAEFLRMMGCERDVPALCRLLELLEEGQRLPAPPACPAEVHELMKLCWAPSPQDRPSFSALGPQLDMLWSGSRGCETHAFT
# Method in brief: as §1
# [1] = tested on: JAK3/JAK1 (IL2-STAT5 in PBMC); assay: Intracellular STAT5 phosphorylation following IL2 stimulation of PBMC (JAK3/JAK1 cellular assay); format: cell-based; conditions: Homo sapiens, read-out: IL2-STAT5 percent inhibition of STAT phosphorylation
# Experimental: Human whole blood was collected into lithium heparin vacutainer tubes from the antecubital vein of human subjects. Peripheral blood mononuclear cells (PBMC) were prepared by layering 10 ml anti-coagulated blood over 5 ml lymphoprep in a 15 ml conical tube and centrifugation for 20 minutes at 400×g in a swinging bucket rotor. The lymphocyte layer was removed, washed twice in tissue culture media (RPMI containing 10% fetal bovine serum) prior to re-suspension in the same media at 2×10^6 cells/ml. 100 μl aliquots of PMBCs were incubated for 1 h at 37° C. with various concentrations of JAK inhibitors prior to stimulation for 15 minutes with 1.5 ng/ml of IL2 or IL4. The reaction was terminated by the addition of 60 μl 16% paraformaldehyde, followed by incubation at room temperature for 10 minutes. Fixed cells were washed twice in PBS, and then re-suspended in −20° C. 50% methanol diluted in PBS and stored at 4° C. overnight. Following permeabilization of the cell membrane in methanol, cells were washed twice in PBS containing 1% BSA and PBMCs were re-suspended in the same buffer containing CD3 and STAT5 Y694 specific antibodies (IL2 stimulations) or CD3, CD14, CD19, and STAT6 Y641 specific antibodies (IL4 stimulations) for 1 hour at room temperature. Cells were then washed and re-suspended in PBS/BSA buffer and assessed by flow cytometry (LSRII; BD Biosciences) for effect of JAK inhibitors on cytokine mediated STAT phosphorylation.
# Percent inhibition of STAT phosphorylation in the cellular assays is provided for the compounds at the given concentrations.
# Sequence of JAK1 (P23458 875-1153): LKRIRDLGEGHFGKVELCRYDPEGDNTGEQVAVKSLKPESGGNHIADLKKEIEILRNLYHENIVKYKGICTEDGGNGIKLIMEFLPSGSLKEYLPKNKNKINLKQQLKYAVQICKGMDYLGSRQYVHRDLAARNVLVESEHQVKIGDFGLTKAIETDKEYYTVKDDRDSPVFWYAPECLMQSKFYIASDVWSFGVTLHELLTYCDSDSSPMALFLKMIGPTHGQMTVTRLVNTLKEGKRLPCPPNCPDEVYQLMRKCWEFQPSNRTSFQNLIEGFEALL
SMILES,"IC50 (JAK1; Table 1, read-out: JAK1 IC50)","IC50 (JAK2; Table 1, read-out: JAK2 IC50)","IC50 (TYK2; Table 1, read-out: Tyk2 IC50)","IC50 (JAK3; Table 1, read-out: JAK3 IC50)","IC50 (JAK1; Table 2, read-out: JAK1)","IC50 (JAK2; Table 2, read-out: JAK2)","IC50 (TYK2; Table 2, read-out: TYK2)","IC50 (JAK3; Table 2, read-out: JAK3)",inhibition at 0.2 µM [1],inhibition at 1 µM [1]
"CC(=O)N1CCN(c2ccc(Nc3cc(NCc4ccccc4)c(C(N)=O)nn3)cc2)CC1 [Compound 5, 6-((4-(4-acetylpiperazin-1-yl)phenyl)amino)-4-(benzylamino)-pyridazine-3-carboxamide]",> 1 µM,0.1 to 1 µM,0.1 to 1 µM,0.01 to 0.1 µM,,,,,,
"CC(=O)N1CCN(c2ccc(Nc3cc(NCc4ccccc4F)c(C(N)=O)nn3)cc2)CC1 [Compound 18, 6-((4-(4-acetylpiperazin-1-yl)phenyl)amino)-4-((2-fluorobenzyl)amino)pyridazine-3-carboxamide]",0.1 to 1 µM,0.1 to 1 µM,0.1 to 1 µM,0.001 to 0.01 µM,> 1 µM,0.1 to 1 µM,0.1 to 1 µM,0.001 to 0.01 µM,,
CC(=O)N1CCN(c2ccc(Nc3cc(NCc4cccc(F)c4)c(C(N)=O)nn3)cc2)CC1 [Compound 19],> 1 µM,0.1 to 1 µM,0.1 to 1 µM,0.001 to 0.01 µM,,,,,,
CC(=O)N1CCN(c2ccc(Nc3cc(NCc4cccs4)c(C(N)=O)nn3)cc2)CC1 [Compound 21],> 1 µM,0.1 to 1 µM,0.1 to 1 µM,0.01 to 0.1 µM,,,,,,
CC(=O)N1CCN(c2ccc(Nc3cc(NCc4ccccc4C)c(C(N)=O)nn3)cc2)CC1 [Compound 23],0.1 to 1 µM,0.1 to 1 µM,0.1 to 1 µM,0.001 to 0.01 µM,,,,,,
CCC(=O)N1CCN(c2ccc(Nc3cc(NCc4ccccc4F)c(C(N)=O)nn3)cc2)CC1 [Compound 29],> 1 µM,0.1 to 1 µM,0.1 to 1 µM,0.01 to 0.1 µM,,,,,,
Cc1cc(Nc2cc(NCc3cccc(F)c3F)c(C(N)=O)nn2)ccc1C(=O)N1CCCC1 [Compound 42],0.1 to 1 µM,0.01 to 0.1 µM,0.1 to 1 µM,0.001 to 0.01 µM,,,,,,
NC(=O)c1nnc(Nc2cccc(OCCN3CCCC3)c2)cc1NCc1cccc(F)c1 [Compound 56],> 1 µM,0.1 to 1 µM,> 1 µM,0.01 to 0.1 µM,,,,,,
CC(=O)N1CCN(c2ccc(Nc3cc(NC4(c5ccccc5)CC4)c(C(N)=O)nn3)cc2)CC1 [Compound 57],> 1 µM,> 1 µM,> 1 µM,0.01 to 0.1 µM,,,,,,
COc1cccc(CNc2cc(Nc3ccc(N4CCN(C(C)=O)CC4)cc3)nnc2C(N)=O)c1 [Compound 58],> 1 µM,0.1 to 1 µM,> 1 µM,0.01 to 0.1 µM,,,,,,
CN(C)C(=O)c1ccc(Nc2cc(NCc3cccc(F)c3)c(C(N)=O)nn2)cc1 [Compound 59],> 1 µM,0.1 to 1 µM,> 1 µM,0.01 to 0.1 µM,,,,,,
Cc1cc(Nc2cc(NCc3cccc(F)c3)c(C(N)=O)nn2)ccc1C(=O)N(C)C [Compound 60],> 1 µM,0.1 to 1 µM,> 1 µM,0.01 to 0.1 µM,,,,,,
Cc1cc(Nc2cc(NCc3cccc(F)c3)c(C(N)=O)nn2)ccc1C(=O)N1CCCC1 [Compound 61],> 1 µM,0.01 to 0.1 µM,0.1 to 1 µM,0.001 to 0.01 µM,,,,,,
CC(=O)Nc1cccc(Nc2cc(NCc3cccc(F)c3)c(C(N)=O)nn2)c1 [Compound 65],> 1 µM,0.1 to 1 µM,0.1 to 1 µM,0.01 to 0.1 µM,,,,,,
Cn1cc(Nc2cc(NCc3cccc(F)c3)c(C(N)=O)nn2)cn1 [Compound 66],> 1 µM,0.1 to 1 µM,> 1 µM,0.01 to 0.1 µM,,,,,,
CS(=O)(=O)Cc1ccc(Nc2cc(NCc3cccc(F)c3F)c(C(N)=O)nn2)cc1 [Compound 89],0.1 to 1 µM,0.1 to 1 µM,0.1 to 1 µM,0.001 to 0.01 µM,,,,,,
CC(=O)N1CCN(c2ccc(Nc3cc(NCc4cccc5ccsc45)c(C(N)=O)nn3)cc2)CC1 [Compound 98],0.1 to 1 µM,0.01 to 0.1 µM,> 1 µM,0.001 to 0.01 µM,> 1 µM,0.01 to 0.1 µM,> 1 µM,0.001 to 0.01 µM,13%,64%
NC(=O)c1nnc(Nc2ccc(N3CCNCC3)cc2)cc1NCc1cccc2ccsc12 [Compound 99],0.1 to 1 µM,0.01 to 0.1 µM,0.1 to 1 µM,0.001 to 0.01 µM,,,,,,
CC(=O)N1CCN(c2ccc(Nc3cc(NCc4cccc5[nH]ccc45)c(C(N)=O)nn3)cc2)CC1 [Compound 109],0.01 to 0.1 µM,0.01 to 0.1 µM,,< 0.001 µM,0.01 to 0.1 µM,0.01 to 0.1 µM,,0.001 to 0.01 µM,69%,95%

# Reference: patent publication US9834548B2, “Pyridazine compounds as JAK inhibitors” (Portola Pharmaceuticals, Inc., priority 2014, dated 2017)
